Measured values: ChEMBL document CHEMBL4152362, “Discovery of DS-6930, a potent selective PPARγ modulator. Part II: Lead optimization” (Bioorg Med Chem, 2018)
In brackets after ≈: the same amount, converted by molar mass. Activity calls are given as the source filed them. The rule behind the calls is not given here.

Legend:
[1] = biological target: T1, Peroxisome proliferator-activated receptor gamma (Homo sapiens, UniProt P37231); test: Agonist activity at recombinant human GAL4-DBD fused PPARgamma LBD expressed in COS7 cells after 24 hrs by luciferase reporter gene assay; format: cell-based
T1 sequence (P37231 whole entry): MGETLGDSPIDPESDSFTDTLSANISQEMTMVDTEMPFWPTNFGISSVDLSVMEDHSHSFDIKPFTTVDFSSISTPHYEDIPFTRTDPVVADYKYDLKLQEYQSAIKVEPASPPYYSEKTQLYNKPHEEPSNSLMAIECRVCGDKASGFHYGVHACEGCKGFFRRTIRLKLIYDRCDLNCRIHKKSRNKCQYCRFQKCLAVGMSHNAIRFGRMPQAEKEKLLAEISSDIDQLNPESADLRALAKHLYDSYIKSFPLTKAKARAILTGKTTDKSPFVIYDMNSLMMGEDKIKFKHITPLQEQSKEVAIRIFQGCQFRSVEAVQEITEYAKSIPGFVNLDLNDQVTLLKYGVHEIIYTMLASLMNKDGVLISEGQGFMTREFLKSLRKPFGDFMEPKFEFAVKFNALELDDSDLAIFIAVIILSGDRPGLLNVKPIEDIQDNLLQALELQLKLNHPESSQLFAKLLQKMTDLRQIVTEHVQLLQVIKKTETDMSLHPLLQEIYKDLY

Rattus norvegicus [2] = test: Toxicity in Zucker diabetic fatty rat assessed as body weight gain at 3 mg/kg, po administered once daily for 14 days relative to control; format: organism-based; details: in vivo, 336 h
[3] = biological target: T2, Peroxisome proliferator-activated receptor alpha (Homo sapiens, UniProt Q07869); test: Agonist activity at recombinant human GAL4-DBD fused PPARalpha LBD expressed in COS7 cells after 24 hrs by luciferase reporter gene assay; format: cell-based
T2 sequence (Q07869 whole entry): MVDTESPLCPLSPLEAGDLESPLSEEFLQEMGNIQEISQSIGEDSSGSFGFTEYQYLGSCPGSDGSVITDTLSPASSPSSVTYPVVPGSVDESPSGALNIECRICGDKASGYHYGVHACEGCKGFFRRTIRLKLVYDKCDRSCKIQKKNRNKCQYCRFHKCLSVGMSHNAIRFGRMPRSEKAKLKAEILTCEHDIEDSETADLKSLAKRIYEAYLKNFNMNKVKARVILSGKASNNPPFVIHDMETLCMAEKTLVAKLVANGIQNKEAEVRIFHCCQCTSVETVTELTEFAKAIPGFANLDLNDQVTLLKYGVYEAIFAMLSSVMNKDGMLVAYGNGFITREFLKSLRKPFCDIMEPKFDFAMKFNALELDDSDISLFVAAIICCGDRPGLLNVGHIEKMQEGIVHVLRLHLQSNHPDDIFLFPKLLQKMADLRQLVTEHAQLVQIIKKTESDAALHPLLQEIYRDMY

[4] = Apparent permeability of the compound after 4 hrs by PAMPA; format: ADME
Rattus norvegicus [5] = test: Antidiabetic activity in Zucker diabetic fatty rat assessed as reduction in plasma glucose level at 3 mg/kg, po administered once daily for 14 days measured on day 15 relative to control; format: functional; design: scale not given: the % may be the effect or the level left
[6] = Tmax in Zucker diabetic fatty rat at 3 mg/kg, po dosed once daily for 14 days and followed by additional administration on day 15; format: ADME, organism-based; details: in vivo
[7] = 1-octanol/PBS distribution co-efficient, log D of the compound at […] at pH 7.4 after 30 mins by HPLC-MS/MS method; format: physicochemical
[8] = AUC (0 to 24 hrs) in Zucker diabetic fatty rat at 3 mg/kg, po dosed once daily for 14 days and followed by additional administration on day 15; format: ADME, organism-based; design: time < 24 hr, dose 3 mg/kg, route oral; details: in vivo
[9] = Aqueous thermodynamic solubility of the compound in pH 6.8 solution up to 4 hrs by HPLC-UV analysis; format: physicochemical; details: read-out: Therm_solubility
[10] = Metabolic stability in human liver microsomes after 0.5 hrs; format: ADME, microsome; details: read-out: Stability
[11] = biological target: T3, Peroxisome proliferator-activated receptor gamma (Homo sapiens) (UniProt P37231); test: Agonist activity at recombinant human GAL4-DBD fused PPARgamma LBD expressed in COS7 cells at 10 uM after 24 hrs by luciferase reporter gene assay relative to rosiglitazone; format: cell-based
T3 sequence (whole entry): T1 sequence (P37231 whole entry)

[12] = biological target: T4, Peroxisome proliferator-activated receptor alpha (Homo sapiens) (UniProt Q07869); test: Agonist activity at recombinant human GAL4-DBD fused PPARalpha LBD expressed in COS7 cells at 10 uM after 24 hrs by luciferase reporter gene assay relative to 2-(4-tert-Butylphenoxy)-3-[4-[2-[(4-pyridin-2-ylbenzoyl)amino]ethoxy] phenyl]propionic acid; format: cell-based
T4 sequence (whole entry): T2 sequence (Q07869 whole entry)

[13] = Cmax in Zucker diabetic fatty rat at 3 mg/kg, po dosed once daily for 14 days and followed by additional administration on day 15; format: ADME, organism-based; design: dose 3 mg/kg, route oral; details: in vivo
[14] = Metabolic stability in rat liver microsomes after 0.5 hrs; format: ADME, microsome; details: read-out: Stability
[15] = biological target: T5, Peroxisome proliferator-activated receptor delta (Homo sapiens) (UniProt Q03181); test: Agonist activity at PPARdelta (unknown origin) at 10 uM
T5 sequence (whole entry): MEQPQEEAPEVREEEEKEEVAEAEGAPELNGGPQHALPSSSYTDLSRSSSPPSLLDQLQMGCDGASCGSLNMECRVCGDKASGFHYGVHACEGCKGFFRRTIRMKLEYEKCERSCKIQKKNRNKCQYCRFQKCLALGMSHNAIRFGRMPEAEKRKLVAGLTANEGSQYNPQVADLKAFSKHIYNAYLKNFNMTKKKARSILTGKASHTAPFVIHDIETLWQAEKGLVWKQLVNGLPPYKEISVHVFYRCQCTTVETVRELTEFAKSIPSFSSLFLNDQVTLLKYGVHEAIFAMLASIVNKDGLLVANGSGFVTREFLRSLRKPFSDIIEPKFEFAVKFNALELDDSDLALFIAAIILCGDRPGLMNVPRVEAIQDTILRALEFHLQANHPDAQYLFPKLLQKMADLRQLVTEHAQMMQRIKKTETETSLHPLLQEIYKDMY

[16] = Oral bioavailability in cynomolgus monkey at 3 mg/kg by LC-MS/MS; format: ADME, organism-based, Macaca fascicularis; details: in vivo
[17] = Clearance in cynomolgus monkey at 1 mg/kg, iv by LC-MS/MS; format: ADME, organism-based, Macaca fascicularis; details: in vivo
[18] = AUClast in cynomolgus monkey at 3 mg/kg, po by LC-MS/MS; format: ADME, organism-based, Macaca fascicularis; design: dose 3 mg/kg, time 0 - last, route oral; details: in vivo
[19] = Cmax in cynomolgus monkey at 3 mg/kg, po by LC-MS/MS; format: ADME, organism-based, Macaca fascicularis; design: dose 3 mg/kg, route oral; details: in vivo
[20] = Metabolic stability in cynomolgus monkey liver microsomes after 0.5 hrs; format: ADME, Macaca fascicularis, microsome; details: read-out: Stability
[21] = Half life in cynomolgus monkey at 3 mg/kg, po by LC-MS/MS; format: ADME, organism-based, Macaca fascicularis; details: in vivo
[22] = Volume of distribution at steady state in cynomolgus monkey at 1 mg/kg, iv by LC-MS/MS; format: ADME, organism-based, Macaca fascicularis; details: in vivo, read-out: Vdss
[23] = Tmax in cynomolgus monkey at 3 mg/kg, po by LC-MS/MS; format: ADME, organism-based, Macaca fascicularis; details: in vivo
Hepatocyte [24] = test: Cytotoxicity against F344/DuCrlCrlj rat primary hepatocytes assessed as reduction in cell viability at 10 to 100 uM after 24 hrs by LDH release assay; format: cell-based
Hepatocyte [25] = test: Cytotoxicity against F344/DuCrlCrlj rat primary hepatocytes assessed as reduction in mitochondrial enzyme activity at 10 to 100 uM after 24 hrs by WST8 assay; format: cell-based
[26] = Cmax in Zucker diabetic fatty rat at 0.3 mg/kg, po administered once daily for 21 days followed by additional administration on day 22; format: ADME, organism-based; design: dose 0.3 mg/kg, route oral; details: in vivo
[27] = Tmax in Zucker diabetic fatty rat at 0.3 mg/kg, po administered once daily for 21 days followed by additional administration on day 22; format: ADME, organism-based; details: in vivo
[28] = AUC (0 to 24 hrs) in Zucker diabetic fatty rat at 0.3 mg/kg, po administered once daily for 21 days followed by additional administration on day 22; format: ADME, organism-based; design: dose 0.3 mg/kg, time < 24 hr, route oral; details: in vivo
Rattus norvegicus [29] = test: Antidiabetic activity in Zucker diabetic fatty rat assessed as reduction in plasma glucose level at 0.3 mg/kg, po administered once daily for 21 days measured on day 22 relative to control; format: functional; design: scale not given: the % may be the effect or the level left

Row | SMILES | EC50 [1] [nM] | Activity (Rattus norvegicus [2]) [%] | EC50 [3] [nM] | Papp at 4 h [4] [×10⁻⁶ cm/s] | Activity (Rattus norvegicus [5]) [%] | Tmax [6] [h] | logD at 0.5 h [7] | AUC at 24 h [8] [ng·h/mL] | solubility thermodynamic at 4 h [9] [µg/mL] | remaining at 0.5 h [10] [%] | Emax [11] [%] | Emax [12] [%] | Cmax [13] [ng/mL] | remaining at 0.5 h [14] [%] | Activity [15] | bioavailability [16] [%] | clearance [17] [mL/min/kg] | AUC(0-t) [18] [ng·h/mL] | Cmax [19] [ng/mL] | remaining at 0.5 h [20] [%] | also measured
1 | Cn1c(COc2cccc(C(=O)O)c2)nc2ccc(Oc3ncc(Cl)cc3Cl)cc21 | 89 | 10.1 | > 10000 | 16.1 | 53.3 | 2.4 | 1.9 | 1400 | 9.9 (≈ 22.3 µM) | 100 | 61 | 6 | 130 | – | – | – | – | – | – | – | –
2 | Cn1c(COc2cccc(C(=O)O)c2)nc2cnc(Oc3ccc4c(c3)CCC4)cc21 | 20 | 6.3 | > 10000 | 16.5 | 1.3 | 2 | 1.6 | 2410 | 70 (≈ 168 µM) | 100 | 55 | 22 | 410 | 81 | inactive | – | – | – | – | – | –
3 | Cc1cnc(Oc2ccc3nc(COc4cccc(C(=O)O)c4)n(C)c3c2)c(C)c1 | – | – | – | – | 57 | 3.2 | 1.4 | 2490 | – | – | – | – | 180 | 92 | – | 89 | 2.06 | 23500 | 2250 | 80 | half-life [21]: 13.5 h; Vd [22]: 0.36 L/kg; Tmax [23]: 5 h
4 | Cn1c(COc2cccc(C(=O)O)c2)nc2ccc(Oc3ccc4c(c3)OCC4)nc21 | 94 | 7.1 | > 10000 | 9.1 | 55.3 | 2 | 1.4 | 3390 | 17 (≈ 40.7 µM) | 92 | 89 | 20 | 630 | 89 | inactive | 27 | 2.73 | 4910 | 460 | 88 | Activity (Hepatocyte [24]): Non-Toxic; Activity (Hepatocyte [25]): Non-Toxic; half-life [21]: 13.3 h; Vd [22]: 1.97 L/kg; Tmax [23]: 1.5 h
5 | Cc1cnc(Oc2ccc3nc(COc4cccc(C(=O)[O-])c4)n(C)c3c2)c(C)c1.Cc1cnc(Oc2ccc3nc(COc4cccc(C(=O)[O-])c4)n(C)c3c2)c(C)c1.[Ca+2] | – | – | – | – | – | – | – | – | – | – | – | – | – | – | – | – | – | – | – | – | Cmax [26]: 79.2 ng/mL; Tmax [27]: 1.8 h; AUC at 24 h [28]: 861 ng·h/mL; Activity (Rattus norvegicus [29]): 47%
6 | Cn1c(COc2cccc(C(=O)O)c2)nc2ccc(Oc3ccc4c(c3)CCC4)nc21 | 25 | 14 | > 10000 | 31.5 | 70.4 | 2 | 2.5 | 4080 | 4.3 (≈ 10.4 µM) | 76 | 79 | 23 | 600 | 71 | inactive | – | – | – | – | – | –
